Laboratory results taken from ChEMBL document CHEMBL1201862, “PubChem BioAssay data set” (2004).
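In this assay, cells in 96-well plates receive the compound at five concentrations for 48 hours. Endpoints are linearly interpolated between the surrounding concentrations. GI50: concentration for 50% inhibition of growth.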 Active and inactive are the calls of the source. Rule as the data show it: active = GI50 up to about 1.1 µM and inactive = higher.

Key:
Test in all cases: NCI-60 cell line screen, 48 h
Hs-578T = test system: Hs-578T
SK-OV-3 = test system: SK-OV-3
RPMI-8226 = test system: RPMI-8226
OVCAR-8 = test system: OVCAR-8
COLO 205 = test system: COLO 205
RXF 393 = test system: RXF 393
UACC-62 = test system: UACC-62
DU-145 = test system: DU-145
HCT-116 = test system: HCT-116
PC-3 = test system: PC-3
SNB-19 = test system: SNB-19
LOX IMVI = test system: LOX IMVI
SK-MEL-2 = test system: SK-MEL-2
KM12 = test system: KM12
BT-549 = test system: BT-549
M14 = test system: M14
IGROV-1 = test system: IGROV-1
HT-29 = test system: HT-29
HCC 2998 = test system: HCC 2998
NCI-H23 = test system: NCI-H23
OVCAR-5 = test system: OVCAR-5
OVCAR-3 = test system: OVCAR-3
SF-268 = test system: SF-268
NCI-H226 = test system: NCI-H226
MDA-MB-231 = test system: MDA-MB-231
MCF7 = test system: MCF7
OVCAR-4 = test system: OVCAR-4
NCI-H460 = test system: NCI-H460
SF-539 = test system: SF-539
SK-MEL-28 = test system: SK-MEL-28
MDA-N = test system: MDA-N
UO-31 = test system: UO-31
HOP-62 = test system: HOP-62
SK-MEL-5 = test system: SK-MEL-5
HOP-92 = test system: HOP-92
K562 = test system: K562
CCRF-CEM = test system: CCRF-CEM
ACHN = test system: ACHN
MDA-MB-435 = test system: MDA-MB-435
SW-620 = test system: SW-620
A549 = test system: A549
T47D = test system: T47D
SF-295 = test system: SF-295
Malme-3M = test system: Malme-3M
SR = test system: SR
U-251 = test system: U-251
SNB-75 = test system: SNB-75
UACC-257 = test system: UACC-257
SN12C = test system: SN12C
TK-10 = test system: TK-10
EKVX = test system: EKVX
MOLT-4 = test system: MOLT-4
CAKI-1 = test system: CAKI-1
NCI/ADR-RES = test system: NCI/ADR-RES
NCI-H522 = test system: NCI-H522
HL-60 = test system: HL-60
HCT-15 = test system: HCT-15
A498 = test system: A498
786-0 = test system: 786-0

`Cc1cc(C)c(S(=O)(=O)N(CCCN)OCCCN)c(C)c1` was tested, and the GI50 (Hs-578T) was > 100 µM (inactive), the GI50 (SK-OV-3) was > 100 µM (inactive) and the GI50 (RPMI-8226) was > 100 µM (inactive). For the same molecule, the GI50 (OVCAR-8) was > 100 µM (inactive), the GI50 (COLO 205) was > 100 µM (inactive) and the GI50 (RXF 393) was > 100 µM (inactive). The GI50 (UACC-62) was > 100 µM (inactive), the GI50 (DU-145) was > 100 µM (inactive) and the GI50 (HCT-116) was > 100 µM (inactive). For the same molecule, the GI50 (PC-3) was > 100 µM (inactive), the GI50 (SNB-19) was > 100 µM (inactive) and the GI50 (LOX IMVI) was > 100 µM (inactive). The GI50 (SK-MEL-2) was > 100 µM (inactive), the GI50 (KM12) was > 100 µM (inactive) and the GI50 (BT-549) was > 100 µM (inactive). For the same molecule, the GI50 (M14) was 31.4 µM (inactive), the GI50 (IGROV-1) was > 100 µM (inactive) and the GI50 (HT-29) was > 100 µM (inactive). For the same molecule, the GI50 (HCC 2998) was > 100 µM (inactive), the GI50 (NCI-H23) was > 100 µM (inactive) and the GI50 (OVCAR-5) was 0.881 µM (active). For the same molecule, the GI50 (OVCAR-3) was 56 µM (inactive), the GI50 (SF-268) was > 100 µM (inactive) and the GI50 (NCI-H226) was > 100 µM (inactive). For the same molecule, the GI50 (MDA-MB-231) was > 100 µM (inactive), the GI50 (MCF7) was > 100 µM (inactive) and the GI50 (OVCAR-4) was > 100 µM (inactive). For the same molecule, the GI50 (NCI-H460) was > 100 µM (inactive), the GI50 (SF-539) was > 100 µM (inactive) and the GI50 (SK-MEL-28) was > 100 µM (inactive). The GI50 (MDA-N) was > 100 µM (inactive), the GI50 (UO-31) was > 100 µM (inactive) and the GI50 (HOP-62) was 6.52 µM (inactive). For the same molecule, the GI50 (SK-MEL-5) was > 100 µM (inactive), the GI50 (HOP-92) was 64.1 µM (inactive) and the GI50 (K562) was > 100 µM (inactive). The GI50 (CCRF-CEM) was > 100 µM (inactive), the GI50 (ACHN) was > 100 µM (inactive) and the GI50 (MDA-MB-435) was > 100 µM (inactive). The GI50 (SW-620) was > 100 µM (inactive), the GI50 (A549) was > 100 µM (inactive) and the GI50 (T47D) was > 100 µM (inactive). The GI50 (SF-295) was > 100 µM (inactive), the GI50 (Malme-3M) was > 100 µM (inactive) and the GI50 (SR) was > 100 µM (inactive). The GI50 (U-251) was > 100 µM (inactive), the GI50 (SNB-75) was > 100 µM (inactive) and the GI50 (UACC-257) was > 100 µM (inactive). For the same molecule, the GI50 (SN12C) was > 100 µM (inactive), the GI50 (TK-10) was > 100 µM (inactive) and the GI50 (EKVX) was > 100 µM (inactive). The GI50 (MOLT-4) was > 100 µM (inactive), the GI50 (CAKI-1) was > 100 µM (inactive) and the GI50 (NCI/ADR-RES) was > 100 µM (inactive).

For `C=C1CC(Cn2cc(C)c(=O)[nH]c2=O)(c2ccc(Cl)cc2)OC1=O` (configuration not stated), the GI50 (Hs-578T) was 6.58 µM (inactive), the GI50 (SK-OV-3) was 14.9 µM (inactive) and the GI50 (RPMI-8226) was 0.414 µM (active). For the same molecule, the GI50 (OVCAR-8) was 3.64 µM (inactive), the GI50 (COLO 205) was 1.42 µM (inactive) and the GI50 (UACC-62) was 2.44 µM (inactive). For the same molecule, the GI50 (DU-145) was 4.65 µM (inactive), the GI50 (HCT-116) was 1.65 µM (inactive) and the GI50 (PC-3) was 3.08 µM (inactive). The GI50 (NCI-H522) was 0.594 µM (active), the GI50 (SNB-19) was 23.1 µM (inactive) and the GI50 (LOX IMVI) was 1.56 µM (inactive). For the same molecule, the GI50 (SK-MEL-2) was 2.12 µM (inactive), the GI50 (KM12) was 13.6 µM (inactive) and the GI50 (BT-549) was 1.51 µM (inactive). For the same molecule, the GI50 (M14) was 1.22 µM (inactive), the GI50 (IGROV-1) was 1.53 µM (inactive) and the GI50 (HL-60) was 0.863 µM (active). The GI50 (HT-29) was 1.69 µM (inactive), the GI50 (HCC 2998) was 3.8 µM (inactive) and the GI50 (NCI-H23) was 3.3 µM (inactive). For the same molecule, the GI50 (OVCAR-5) was 14.9 µM (inactive), the GI50 (OVCAR-3) was 3.6 µM (inactive) and the GI50 (SF-268) was 17.1 µM (inactive). The GI50 (NCI-H226) was 13.4 µM (inactive), the GI50 (MDA-MB-231) was 3.05 µM (inactive) and the GI50 (MCF7) was 0.933 µM (active). The GI50 (OVCAR-4) was 1.72 µM (inactive), the GI50 (NCI-H460) was 15.8 µM (inactive) and the GI50 (SF-539) was 10.9 µM (inactive). The GI50 (SK-MEL-28) was 2.18 µM (inactive), the GI50 (MDA-N) was 2.99 µM (inactive) and the GI50 (UO-31) was 12.9 µM (inactive). The GI50 (HCT-15) was 0.867 µM, the GI50 (HOP-62) was 15.8 µM (inactive) and the GI50 (SK-MEL-5) was 2.67 µM (inactive). The GI50 (HOP-92) was 0.438 µM (active), the GI50 (K562) was 0.673 µM (active) and the GI50 (CCRF-CEM) was 0.855 µM (active). The GI50 (ACHN) was 3.83 µM (inactive), the GI50 (MDA-MB-435) was 3.85 µM (inactive) and the GI50 (SW-620) was 1.44 µM (inactive). The GI50 (A549) was 16.6 µM (inactive), the GI50 (T47D) was 2.08 µM (inactive) and the GI50 (SF-295) was 9.64 µM (inactive). The GI50 (Malme-3M) was 1.88 µM (inactive), the GI50 (SR) was 1.17 µM (inactive) and the GI50 (U-251) was 16.2 µM (inactive). The GI50 (SNB-75) was 10.7 µM (inactive), the GI50 (UACC-257) was 1.4 µM (inactive) and the GI50 (SN12C) was 7.05 µM (inactive). The GI50 (TK-10) was 1.68 µM (inactive), the GI50 (EKVX) was 11.9 µM (inactive) and the GI50 (A498) was 5.94 µM (inactive). The GI50 (MOLT-4) was 0.94 µM (active), the GI50 (CAKI-1) was 1.83 µM (inactive) and the GI50 (NCI/ADR-RES) was 3.98 µM (inactive). The GI50 (786-0) was 1.56 µM (inactive).

`O=C1NC(N2CCCCC2)=N/C1=C\c1ccco1` was tested, and the GI50 (Hs-578T) was > 100 µM (inactive), the GI50 (SK-OV-3) was > 100 µM (inactive) and the GI50 (RPMI-8226) was > 100 µM (inactive). For the same molecule, the GI50 (OVCAR-8) was > 100 µM (inactive), the GI50 (COLO 205) was > 100 µM (inactive) and the GI50 (RXF 393) was > 100 µM (inactive). For the same molecule, the GI50 (UACC-62) was > 100 µM (inactive), the GI50 (DU-145) was > 100 µM (inactive) and the GI50 (HCT-116) was > 100 µM (inactive). The GI50 (PC-3) was > 100 µM (inactive), the GI50 (NCI-H522) was > 100 µM (inactive) and the GI50 (SNB-19) was > 100 µM (inactive). For the same molecule, the GI50 (LOX IMVI) was > 100 µM (inactive), the GI50 (SK-MEL-2) was > 100 µM (inactive) and the GI50 (KM12) was > 100 µM (inactive). The GI50 (BT-549) was > 100 µM (inactive), the GI50 (M14) was > 100 µM (inactive) and the GI50 (IGROV-1) was 54.7 µM (inactive). For the same molecule, the GI50 (HL-60) was > 100 µM (inactive), the GI50 (HT-29) was 30.3 µM (inactive) and the GI50 (HCC 2998) was > 100 µM (inactive). For the same molecule, the GI50 (NCI-H23) was > 100 µM (inactive), the GI50 (OVCAR-5) was > 100 µM (inactive) and the GI50 (OVCAR-3) was > 100 µM (inactive). The GI50 (SF-268) was > 100 µM (inactive), the GI50 (NCI-H226) was 67.9 µM (inactive) and the GI50 (MDA-MB-231) was > 100 µM (inactive). The GI50 (MCF7) was > 100 µM (inactive), the GI50 (OVCAR-4) was > 100 µM (inactive) and the GI50 (SF-539) was > 100 µM (inactive). The GI50 (SK-MEL-28) was > 100 µM (inactive), the GI50 (MDA-N) was > 100 µM (inactive) and the GI50 (UO-31) was > 100 µM (inactive). For the same molecule, the GI50 (HCT-15) was greater than 100 µM, the GI50 (HOP-62) was > 100 µM (inactive) and the GI50 (SK-MEL-5) was > 100 µM (inactive). The GI50 (HOP-92) was > 100 µM (inactive), the GI50 (CCRF-CEM) was > 100 µM (inactive) and the GI50 (ACHN) was > 100 µM (inactive). The GI50 (MDA-MB-435) was > 100 µM (inactive), the GI50 (SW-620) was > 100 µM (inactive) and the GI50 (A549) was > 100 µM (inactive). For the same molecule, the GI50 (T47D) was > 100 µM (inactive), the GI50 (SF-295) was > 100 µM (inactive) and the GI50 (Malme-3M) was > 100 µM (inactive). The GI50 (SR) was > 100 µM (inactive), the GI50 (U-251) was > 100 µM (inactive) and the GI50 (UACC-257) was > 100 µM (inactive). For the same molecule, the GI50 (SN12C) was > 100 µM (inactive), the GI50 (TK-10) was > 100 µM (inactive) and the GI50 (EKVX) was 78.2 µM (inactive). For the same molecule, the GI50 (MOLT-4) was > 100 µM (inactive), the GI50 (CAKI-1) was > 100 µM (inactive) and the GI50 (NCI/ADR-RES) was > 100 µM (inactive). For the same molecule, the GI50 (786-0) was > 100 µM (inactive).
